From patent publication US20240316051A1, “A PHARMACEUTICAL COMBINATION AND USE THEREOF” (Ascentage Pharma (Suzhou) Co., Ltd., priority 2021, published 2024)
pIC50: −log10 of the molar value.

Molecular target: T1, EED (1-441)-His protein (Homo sapiens, UniProt O75530)
T1 construct: 20 nM EED (1-441)-His protein
Assay: EED-H3K27Me3 peptide competition binding assay by AlphaScreen
Conditions: IC50 class, Table 4B, read-out: Alpha screen
Description: EED-H3K27Me3 Peptide Competition Binding Assay by AlphaScreen (α-Screen):
The compounds at each concentration (2.5 μl of each) were transferred into a 384-well Perkin Elmer OptiPlate-384 white plates. 5 μl of solutions containing 20 nM EED (1-441)-His protein in the buffer (25 mM HEPES, pH 8, 0.02% Tween-20, 0.5% BSA) were added to the wells and then incubated with compound for 15 min. 2.5 μl of solutions containing 20 nM biotin-H3K27Me3 (19-33) peptide in the buffer (25 mM HEPES, pH 8, 0.02% Tween-20, 0.5% BSA) were added to the wells and then incubated with compound for 30 min. AlphaScreen detection beads mix was prepared immediately before use by mixing nickel chelate acceptor beads and streptavidin donor beads in a 1:1 ratio (Perkin Elmer, Product No. 6760619C/M/R) into the buffer described above. Then 10 μl of the detection beads mix was added to the plate and incubated in the dark at RT for 1 h. The final concentration of donor and acceptor beads was 10 μg/ml for each. Plates were read on CLARIOStar plate reader (BMG Labtech) using the AlphaScreen setting adapted for optimal signal detection with a 615 nm filter, after sample excitation at 680 nm. The emission signal at 615 nm was used to quantify compound inhibition. AlphaScreen signals were normalized based on the reading coming from the positive (maximum signal control) and negative controls (minimum signal control) to give percentage of activities left. The data were then fit to a dose response equation to get the IC50 values.

T1 sequence (O75530 whole entry): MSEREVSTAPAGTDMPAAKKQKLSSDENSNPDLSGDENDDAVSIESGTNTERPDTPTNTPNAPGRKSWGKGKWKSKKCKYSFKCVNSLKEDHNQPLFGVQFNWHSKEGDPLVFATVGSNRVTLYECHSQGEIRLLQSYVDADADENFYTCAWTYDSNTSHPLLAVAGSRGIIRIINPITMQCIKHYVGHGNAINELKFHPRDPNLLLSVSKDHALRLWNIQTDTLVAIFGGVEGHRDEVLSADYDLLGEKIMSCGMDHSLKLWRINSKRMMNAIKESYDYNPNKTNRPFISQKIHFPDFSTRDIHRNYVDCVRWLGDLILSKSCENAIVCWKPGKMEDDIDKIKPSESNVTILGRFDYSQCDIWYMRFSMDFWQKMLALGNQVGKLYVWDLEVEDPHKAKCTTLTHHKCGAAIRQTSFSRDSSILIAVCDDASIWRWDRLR

**Q.** With `O=C1c2ncn3c(NCc4c(F)ccc5c4CCO5)ncc(c23)-c2ccc(C(F)(F)F)nc2CN1CC(F)F` [E 8, 4-(2,2-difluoroethyl)-12-(((5-fluoro-2,3-dihydro-benzofuran-4-yl)methyl)amino)-7-(trifluoromethyl)-4,5-dihydro-3H-2,4,6, 11,12a-pentaazabenzo[4,5] cycloocta[1,2,3-cd]inden-3-one] as the compound, how does the pIC50 read?
**A.** Its pIC50 is > 8.00.

**Q.** `Cc1ccc2c(n1)Cn1c(C)cnc1-c1ncn3c(NCc4c(F)ccc5c4CCO5)ncc-2c13` [E 18, N-((5-fluoro-2,3-dihydrobenzofuran-4-yl)methyl)-5,8-dimethyl-6H-2,3,5a,7,12,13a-hexaazabenzo[4, 5]cyclopenta[7,8]cycloocta[1,2,3-cd]inden-13-amine] was tested. Which pIC50 did it give?
**A.** The pIC50 was > 8.00.

**Q.** How did the pIC50 turn out when `Cc1cc2c(cn1)-c1cnc(NCc3c(F)ccc4c3CCO4)n3cnc(c13)C(=O)N(C(C)C)C2` [E 2, 12-(((5-fluoro-2,3-dihydrobenzofuran-4-yl)methyl)amino)-4-isopropyl-7-methyl-4,5-dihydro-3H-2,4,8,11,12a-pentaazabenzo[4,5]cycloocta[1,2,3-cd] inden-3-one] was run?
**A.** Its pIC50 is > 8.00.

**Q.** `CC(C)N1Cc2cc(C#N)ccc2-c2cnc(NCc3c(F)ccc4c3CCO4)n3cnc(c23)C1=O` [E 4, 12-(((5-fluoro-2,3-dihydrobenzofuran-4-yl)methyl)amino)-4-isopropyl-3-oxo-4,5-dihydro-3H-2,4,11, 12a-tetraazabenzo[4,5]cycloocta[1,2,3-cd]indene-7-carbonitrile] was tested. Which pIC50 did it give?
**A.** The pIC50 was > 8.00.

**Q.** `O=C1c2ncn3c(NCc4c(F)ccc5c4CCO5)ncc(c23)-c2ccc(C3CCOCC3)nc2CN1CC(F)(F)F` [E 45, 12-(((5-fluoro-2,3-dihydrobenzofuran-4-yl)methyl)amino)-7-(tetrahydro-2H-pyran-4-yl)-4-(2,2,2-trifluoroethyl)-4,5-dihydro-3H-2,4,6,11,12a-pentaazabenzo[4,5]cycloocta[1,2,3-cd]inden-3-one] was tested. Which pIC50 did it give?
**A.** Its pIC50 is > 8.00.

**Q.** `CC(C)(C)c1ccc2c(n1)CN(CC(F)(F)F)C(=O)c1ncn3c(NCc4c(F)ccc5c4CCO5)ncc-2c13` [E 50, 7-(tert-butyl)-12-(((5-fluoro-2,3-dihydrobenzofuran-4-yl)methyl)amino)-4-(2,2,2-trifluoroethyl)-4,5-dihydro-3H-2,4,6,11,12a-pentaazabenzo[4,5] cycloocta[1,2,3-cd]inden-3-one] was tested. Which pIC50 did it give?
**A.** The pIC50 was > 8.00.

Same assay, conditions: Table 4A, read-out: Alpha screen

**Q.** With `CS(=O)(=O)c1ccc2c(c1)NC(=O)c1ncn3c(NCc4c(F)ccc5c4CCO5)ncc-2c13` [Compound 5, 11-(((5-fluoro-2,3-dihydrobenzofuran-4-yl)methyl)amino)-6-(methylsulfonyl)-2,4,10,11a-tetraazadibenzo[cd,f]azulen-3(4H)-one] as the compound, how does the pIC50 read?
**A.** Its pIC50 is 9.59.

**Q.** `O=C1OCc2c(F)cccc2-c2cnc(NCc3c(F)ccc4c3CCO4)n3cnc1c23` [Compound 11, 6-fluoro-12-(((5-fluoro-2,3-dihydrobenzofuran-4-yl)methyl)amino)-3H,5H-4-oxa-2,11,12a-triazabenzo [4,5]cycloocta[1,2,3-cd]inden-3-one] was tested. Which pIC50 did it give?
**A.** Its pIC50 is 9.12.

**Q.** With `Cn1ncc2c1CNC(=O)c1ncn3c(NCc4c(F)ccc5c4CCO5)ncc-2c13` [Compound 53, 11-(((5-fluoro-2,3-dihydrobenzofuran-4-yl)methyl)amino)-6-methyl-5,6-dihydro-2,4,6,7,10,11a-hexaazacyclopenta[4,5]cycloocta[1,2,3-cd]inden-3(4H)-one] as the compound, how does the pIC50 read?
**A.** Its pIC50 is 8.40.

**Q.** `Cc1ccc2c(n1)COC(=O)c1ncn3c(NCc4c(F)ccc5c4CCO5)ncc-2c13` [Compound 18, 12-(((5-fluoro-2,3-dihydrobenzofuran-4-yl)methyl)amino)-7-methyl-3H,5H-4-oxa-2,6,11,12a-tetraazabenzo[4,5]cycloocta[1,2,3-cd]inden-3-one] was tested. Which pIC50 did it give?
**A.** The pIC50 was 9.15.

**Q.** `CC(C)(O)CN1Cc2cc(C(F)(F)F)ncc2-c2cnc(NCc3c(F)ccc4c3CCO4)n3cnc(c23)C1=O` [Compound 48, 12-(((5-fluoro-2,3-dihydrobenzofuran-4-yl)methyl)amino)-4-(2-hydroxy-2-methylpropyl)-7-(trifluoro-methyl)-4,5-dihydro-3H-2,4,8,11,12a-pentaaza-benzo[4,5]cycloocta[1,2,3-cd]inden-3-one] was tested. Which pIC50 did it give?
**A.** The pIC50 was 8.78.

**Q.** With `Cc1cccc(F)c1CNc1ncc2c3c(ncn13)COCc1ncccc1-2` [Compound 1, N-(2-fluoro-6-methylbenzyl)-3H,5H-4-oxa-2,6,11, 12a-tetraazabenzo[4,5]cycloocta[1,2,3-cd]inden-1 2-amine] as the compound, how does the pIC50 read?
**A.** Its pIC50 is < 8.00.

**Q.** How did the pIC50 turn out when `O=C1NCc2cc(F)ccc2-c2cnc(NCc3c(F)ccc4c3CCO4)n3cnc1c23` [Compound 17, 7-fluoro-12-(((5-fluoro-2,3-dihydrobenzofuran-4-yl)methyl)amino)-4,5-dihydro-3H-2,4,11,12a-tetra azabenzo[4,5]cycloocta[1,2,3-cd]inden-3-one] was run?
**A.** Its pIC50 is 9.18.

**Q.** How did the pIC50 turn out when `Cc1ccc2c(n1)CN(CC1CC(C)(O)C1)C(=O)c1ncn3c(NCc4c(F)ccc5c4CCO5)ncc-2c13` (stereo not shown) [Compound 50, 12-(((5-fluoro-2,3-dihydrobenzofuran-4-yl)methyl)amino)-4-((3-hydroxy-3-methylcyclobutyl)methyl)-7-methyl-4,5-dihydro-3H-2,4,6,11,12a-pentaaza benzo[4,5]cycloocta[1,2,3-cd]inden-3-one] was run?
**A.** Its pIC50 is 8.94.

**Q.** How did the pIC50 turn out when `O=C1OCc2ccc(C(F)(F)F)nc2-c2cnc(NCc3c(F)ccc4c3CCO4)n3cnc1c23` [Compound 29, 12-(((5-fluoro-2,3-dihydrobenzofuran-4-yl)methyl)amino)-8-(trifluoromethyl)-3H,5H-4-oxa-2,9,11, 12a-tetraazabenzo[4,5]cycloocta[1,2,3-cd]inden-3-one] was run?
**A.** The pIC50 was 7.68.

**Q.** `O=C1OCc2cc(C(F)(F)F)ncc2-c2cnc(NCc3c(F)ccc4c3CCO4)n3cnc1c23` [Compound 13, 12-(((5-fluoro-2,3-dihydrobenzofuran-4-yl)methyl)amino)-7-(trifluoromethyl)-3H,5H-4-oxa-2,8,11, 12a-tetraazabenzo[4,5]cycloocta[1,2,3-cd]inden-3-one] was tested. Which pIC50 did it give?
**A.** The pIC50 was 8.96.

**Q.** With `COc1cccc(F)c1CNc1ncc2c3c(ncn13)C(=O)OCc1cc(C(F)(F)F)ccc1-2` [Compound 28, 12-((2-fluoro-6-methoxybenzyl)amino)-7-(trifluoro-methyl)-3H,5H-4-oxa-2,11,12a-triazabenzo[4,5] cycloocta[1,2,3-cd]inden-3-one] as the compound, how does the pIC50 read?
**A.** The pIC50 was 8.59.

**Q.** How did the pIC50 turn out when `O=C1OCc2ncc(C(F)(F)F)cc2-c2cnc(NCc3c(F)ccc4c3CCO4)n3cnc1c23` [Compound 30, 12-(((5-fluoro-2,3-dihydrobenzofuran-4-yl)methyl)amino)-8-(trifluoromethyl)-3H,5H-4-oxa-2,6,11, 12a-tetraazabenzo[4,5]cycloocta[1,2,3-cd]inden-3-one] was run?
**A.** The pIC50 was 8.69.

**Q.** How did the pIC50 turn out when `O=C1c2ncn3c(NCc4c(F)ccc5c4CCO5)ncc(c23)-c2ccc(C(F)(F)F)nc2CN1CC1(O)CC1` [Compound 44, 12-(((5-fluoro-2,3-dihydrobenzofuran-4-yl)methyl)amino)-4-((1-hydroxycyclopropyl)methyl)-7-(trifluoromethyl)-4,5-dihydro-3H-2,4,6,11,12a-pentaazabenzo[4,5]cycloocta[1,2,3-cd]inden-3-one] was run?
**A.** Its pIC50 is 8.87.

**Q.** How did the pIC50 turn out when `O=C1OCc2cc(F)ccc2-c2cnc(NCc3cccc4c3CCO4)n3cnc1c23` [Compound 9, 12-(((2,3-dihydrobenzofuran-4-yl)methyl)amino)-7-fluoro-3H,5H-4-oxa-2,11,12a-triazabenzo[4,5] cycloocta[1,2,3-cd]inden-3-one] was run?
**A.** Its pIC50 is 9.08.

**Q.** With `Cc1ccc2c(n1)CNC(=O)c1ncn3c(NCc4c(F)ccc5c4CCO5)ncc-2c13` [Compound 21, 12-(((5-fluoro-2,3-dihydrobenzofuran-4-yl)methyl)amino)-7-methyl-4,5-dihydro-3H-2,4,6,11,12a-pentaazabenzo[4,5]cycloocta[1,2,3-cd]inden-3-one] as the compound, how does the pIC50 read?
**A.** The pIC50 was 9.26.

**Q.** `CN1CCC(CN2Cc3nc(C(F)(F)F)ccc3-c3cnc(NCc4c(F)ccc5c4CCO5)n4cnc(c34)C2=O)CC1` [Compound 42, 12-(((5-fluoro-2,3-dihydrobenzofuran-4-yl)methyl)amino)-4-((1-methylpiperidin-4-yl)methyl)-7-(trifluoromethyl)-4,5-dihydro-3H-2,4,6,11,12a-pentaazabenzo[4,5]cycloocta[1,2,3-cd]inden-3-one] was tested. Which pIC50 did it give?
**A.** The pIC50 was 9.08.

**Q.** How did the pIC50 turn out when `CN1Cc2ccc(C(F)(F)F)nc2-c2cnc(NCc3c(F)ccc4c3CCO4)n3cnc(c23)C1=O` [Compound 39, 12-(((5-fluoro-2,3-dihydrobenzofuran-4-yl)methyl)amino)-4-methyl-8-(trifluoromethyl)-4,5-dihydro-3H-2,4,9,11,12a-pentaazabenzo[4,5]cycloocta [1,2,3-cd]inden-3-one] was run?
**A.** The pIC50 was 7.58.

**Q.** With `O=C1Nc2ccccc2-c2cnc(NCc3c(F)ccc4c3CCO4)n3cnc1c23` [Compound 3, 11-(((5-fluoro-2,3-dihydrobenzofuran-4-yl)methyl)amino)-2,4,10,11a-tetraazadibenzo[cd,f]azulen-3(4H)-one] as the compound, how does the pIC50 read?
**A.** The pIC50 was 8.16.

**Q.** How did the pIC50 turn out when `COCCN1Cc2nc(C(F)(F)F)ccc2-c2cnc(NCc3c(F)ccc4c3CCO4)n3cnc(c23)C1=O` [Compound 57, 12-(((5-fluoro-2,3-dihydrobenzofuran-4-yl)methyl)amino)-4-(2-methoxyethyl)-7-(trifluoromethyl)-4,5-dihydro-3H-2,4,6,11,12a-pentaazabenzo[4,5] cycloocta[1,2,3-cd]inden-3-one] was run?
**A.** Its pIC50 is 8.38.
